What was measured:
Assay type in all cases: in vivo
[1] = tested on: streptozotocin-induced Type 1 diabetic model in Wistar rats; experiment: Muscle and liver glycogen in streptozotocin-induced diabetic rats; details: extracts 40 mg/kg orally, glibenclamide 3 mg/kg orally
Method: (§1) The study was conducted in adult male Wistar rats weighing 200-250 gm for a period of 40 days (30 days of treatment and 10 days of induction). The animals were randomly divided into seven groups comprising six each. Diabetes was induced in all the groups except the normal control group by the intra peritoneal administration of streptozotocin at 50 mg/kg. […] The effect of the different fractions was assessed by measuring the fasting blood glucose level, post prandial blood glucose level, serum insulin levels and glycosylated Hb. The anti hyperlipidemic effect was assessed by the estimation of total cholesterol, triglyceride, LDL cholesterol, HDL cholesterol, VLDL, muscle glycogen and liver glycogen. The antioxidant effects of the different extracts were assessed by the measuring TBARS, superoxide dismutase (SOD), catalase, reduced glutathione (GSH) and glutathione peroxidase levels (GPx). TBARS was determined by TBA assay (Ohkawa et al., 1979), SOD was measured using the nitroblue tetrazolium reduction method (Kakkar et al., 1984), Catalase was assayed using the method described by Aebi (1974). GPx was measured as described by Flohe and Gunzler (1984), GSH was measured as per the method of Jollow et al., (1974). Histopathological examination of pancreas was conducted to assess the antidiabetic effect of the different fractions of Costus pictus D. Don.

[2] = tested on: streptozotocin-induced Type 1 diabetic model in Wistar rats; experiment: Pancreatic histopathology in streptozotocin-induced diabetic rats; details: for beta cell staining in islet of Langerhans (immune histochemistry, in words): FIG. 13-17
Method: as §1

[3] = tested on: streptozotocin-induced Type 1 diabetic model in Wistar rats; experiment: Lipid profile in streptozotocin-induced diabetic rats; details: extracts 40 mg/kg orally, glibenclamide 3 mg/kg orally
Method: as §1

[4] = tested on: streptozotocin-induced Type 1 diabetic model in Wistar rats; experiment: Blood glucose level in streptozotocin-induced Type 1 diabetic model; details: extracts 40 mg/kg orally, glibenclamide 3 mg/kg orally
Method: Evaluation of effect of different fractions of fresh leaves of Costus pictus D. Donon streptozotocin-induced Type 1 diabetic model in Wistar rats.
as §1, with “mg/kg. After the induction of diabetes, one group was kept as diabetic untreated control and a positive control was maintained in which the animals were treated with standard drug, glibenclamide at 3 mg/kg orally.” for “mg/kg.”
Group 3—Positive control—diabetic animals treated with glibenclamide at 3 mg/kg orally.
Group 4—diabetic animals treated with methanolic extract of fresh leaves of Costus pictus D. Don, the extract has low oxalic acid and/or oxalates content (Sample 2 prepared as per Example 1) at 40 mg/kg orally. […]

## COc1ccc(Cl)cc1C(=O)NCCc1ccc(S(=O)(=O)NC(=O)NC2CCCCC2)cc1 [glibenclamide]
[1]
  Liver glycogen: 46 mg/g tissue
  Muscle glycogen: 8 mg/g tissue
[2]; pancreas of streptozotocin-induced diabetic rats
  beta cell staining in islet of Langerhans (immune histochemistry, in words): moderately stained and comparable to group 1
[2]; pancreas of streptozotocin-induced diabetic rats, listed as Glibenclamide
  beta cell staining in islet of Langerhans (immune histochemistry, in words): moderately stained beta cells
[2]; pancreas of streptozotocin-induced diabetic rats, normal group 36, untreated diabetic group 5
  mean number of islets: 18.66
[2]; versus untreated diabetic control
  appearance of islets in pancreas sections (in words): less shrunken than the untreated diabetic control group
[3]; HDL cholesterol
  HDL: 52 mg/dL
[3]; LDL cholesterol
  LDL: 56 mg/dL
[3]
  VLDL: 20 mg/dL
[3]; total cholesterol
  TC: 128 mg/dL
[3]; triglyceride
  TG: 100 mg/dL
[4]; 0th day
  blood glucose levels, 0th day: 321 mg/dL
[4]; 15th day
  blood glucose levels, 15th day: 126 mg/dL
[4]; 30th day
  blood glucose levels, 30th day: 71 mg/dL

Source: patent US20180228861A1, “COMPOSITION FOR TREATING DIABETES AND DYSLIPIDEMIA OBTAINED FROM THE EXTRACT OF COSTUS PICTUS D.DON PLANT AND A METHOD OF PREPARING THE SAME” (ARJUNA NATURAL EXTRACTS, LTD., priority 2012, published 2018)
